# Results taken from patent US20240190855A1 (Relay Therapeutics, Inc., priority 2021, published 2024).
# pIC50: −log10 of the molar value.
# Molecular target: T1, CDK2/Cyclin E complex (Homo sapiens, UniProt P24941)
# T1 construct: purchased Eurofins 14-475
# Experiment: CDK2/Cyclin E fluorescence-based microfluidic mobility shift assay (CDK2 Biochemical Caliper Assay)
# Conditions: read-out: Biochemical CDK2/CyclinE Caliper IC50
# In short: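 Microfluidic mobility-shift readout after EDTA termination measured phosphorylation of fluorescent FL Peptide 18 (1.5 uM final) in a 20 hr room-temperature reaction. Compounds were tested at 11 concentrations (3-fold).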
row,pIC50,Compound
1,4.00 to 6.00,COCc1cc(C(=O)Nc2cc([C@H]3C[C@@](C)(CC(=O)NC(C)C)C3)[nH]n2)n(C)n1 [Example 532]
2,4.00 to 6.00,COCc1cc(C(=O)Nc2cc([C@H]3C[C@](C)(CC(=O)NC(C)C)C3)[nH]n2)n(C)n1 [Example 533]
3,4.00 to 6.00,COCc1cc(C(=O)Nc2cc([C@H]3C[C@@H]4[C@H](C3)[C@H]4C(=O)N(C)C)[nH]n2)n(C)n1 [Example 540]
4,6.60 to 7.00,COCc1cc2c(Nc3cc([C@H]4C[C@H](COC(=O)NC(C)C)C4)[nH]n3)nccn2n1 [Example 560]
5,4.00 to 6.00,COCc1cc(C(=O)Nc2cc([C@H]3C[C@@H](COc4cccnc4)C3)[nH]n2)n(C)n1 [Example 561]
6,4.00 to 6.00,COCc1cc(C(=O)Nc2cc([C@H]3C[C@H](COc4cccnc4)C3)[nH]n2)n(C)n1 [Example 562]
7,≥ 7.00,CC(C)c1[nH]ncc1OC[C@H]1C[C@@H](c2cc(Nc3nccn4nccc34)n[nH]2)C1 [Example 582]
8,4.00 to 6.00,CC(C)c1[nH]ncc1OC[C@H]1C[C@H](c2cc(Nc3nccn4nccc34)n[nH]2)C1 [Example 583]
9,6.60 to 7.00,COCc1cc(C(=O)Nc2cc([C@H]3C[C@@H](COc4cn[nH]c4C(C)C)C3)[nH]n2)n(C)n1 [Example 587]
10,≥ 7.00,COCc1cc2c(Nc3cc([C@H]4C[C@@H](COc5cn[nH]c5C(C)C)C4)[nH]n3)nccn2n1 [Example 588]
11,≥ 7.00,COCc1cc(C(=O)Nc2cc([C@H]3C[C@@H](COc4cn[nH]c4C(C)(C)C)C3)[nH]n2)n(C)n1 [Example 622]
12,6.60 to 7.00,COCc1cc(C(=O)Nc2cc([C@H]3C[C@@H](COc4cn(C)nc4C(C)C)C3)[nH]n2)n(C)n1 [Example 623]
13,≥ 7.00,CCOCc1cc(C(=O)Nc2cc([C@H]3C[C@@H](COC(=O)NC(C)C)C3)[nH]n2)n(C)n1 [Example 624]
14,4.00 to 6.00,CCOCc1cc(C(=O)Nc2cc([C@H]3C[C@H](COC(=O)NC(C)C)C3)[nH]n2)n(C)n1 [Example 625]
15,6.00 to 6.60,COCc1cc(C(=O)Nc2cc([C@H]3CC[C@@H](OC(=O)NC(C)C)CC3)[nH]n2)n(C)n1 [Example 626]
16,≥ 7.00,COCc1cc(C(=O)Nc2cc([C@H]3CC[C@@H](Oc4nnccc4C(C)C)CC3)[nH]n2)n(C)n1 [Example 627]
17,6.00 to 6.60,COCc1cc(C(=O)Nc2cc([C@@H]3CC[C@H](Oc4cn[nH]c4C(C)C)C3)[nH]n2)n(C)n1 [Example 628]
18,6.60 to 7.00,COCc1cc(C(=O)Nc2cc([C@H]3CC[C@@H](Oc4cn[nH]c4C(C)C)C3)[nH]n2)n(C)n1 [Example 629]
19,≥ 7.00,COCc1cc2c(Nc3cc([C@H]4C[C@@H](COc5cn[nH]c5C(C)(C)C)C4)[nH]n3)nccn2n1 [Example 630]
20,6.60 to 7.00,COCc1cc(C(=O)Nc2cc([C@H]3C[C@@H](COc4cnn(C)c4C(C)C)C3)[nH]n2)n(C)n1 [Example 631]
21,≥ 7.00,COCc1cc(C(=O)Nc2cc([C@H]3C[C@@H](COc4nncn4C(C)(C)C)C3)[nH]n2)n(C)n1 [Example 632]
22,≥ 7.00,COCc1cc(C(=O)Nc2cc([C@H]3C[C@@H](COc4nncn4C(C)C)C3)[nH]n2)n(C)n1 [Example 633]
23,6.60 to 7.00,COCc1cc(C(=O)Nc2cc([C@H]3C[C@@H](COc4cn(C)nc4C(C)(C)C)C3)[nH]n2)n(C)n1 [Example 642]
24,6.00 to 6.60,COCc1cc(C(=O)Nc2cc([C@H]3C[C@@H](COc4cn[nH]c4C4(C)CC4)C3)[nH]n2)n(C)n1 [Example 645]
25,≥ 7.00,CC(C)NC(=O)OC[C@H]1C[C@@H](c2cc(NC(=O)c3cc(COC(F)(F)F)nn3C)n[nH]2)C1 [Example 646]
26,≥ 7.00,CC(C)NC(=O)OC[C@H]1C[C@@H](c2cc(NC(=O)c3cc(COC(F)F)nn3C)n[nH]2)C1 [Example 650]
27,≥ 7.00,CC(C)NC(=O)OC[C@H]1C[C@@H](c2cc(NC(=O)c3cc(COC(C)C)nn3C)n[nH]2)C1 [Example 652]

# The next lines start with the compound.
row,Compound,pIC50
1,Cc1ncccc1O[C@@H]1CO[C@H](c2cc(Nc3nccn4nccc34)n[nH]2)C1 [Example 521],4.00 to 6.00
2,Cc1ncccc1O[C@H]1CO[C@@H](c2cc(Nc3nccn4nccc34)n[nH]2)C1 [Example 522],6.00 to 6.60
3,CC(C)c1ccnnc1O[C@H]1CO[C@@H](c2cc(Nc3nccc4ncsc34)n[nH]2)C1 [Example 523],≥ 7.00
4,CC(C)c1ccnnc1O[C@@H]1CO[C@H](c2cc(Nc3nccc4ncsc34)n[nH]2)C1 [Example 524],≥ 7.00
5,c1cncc(OC[C@H]2C[C@@H](c3cc(Nc4nccn5nccc45)n[nH]3)C2)c1 [Example 536],≥ 7.00
6,c1cncc(OC[C@H]2C[C@H](c3cc(Nc4nccn5nccc45)n[nH]3)C2)c1 [Example 537],4.00 to 6.00
7,COCc1cc(C(=O)Nc2cc([C@H]3C[C@]4(C3)NC(=O)N(CC(C)C)C4=O)n[nH]2)n(C)n1 [Example 541],4.00 to 6.00
8,COCc1cc2c(Nc3cc([C@H]4C[C@@H](OC(=O)NC(C)C)CO4)[nH]n3)nccn2n1 [Example 544],≥ 7.00
9,COCc1cc2c(Nc3cc([C@@H]4C[C@H](OC(=O)NC(C)C)CO4)[nH]n3)nccn2n1 [Example 545],≥ 7.00
10,COCc1cc(C(=O)Nc2cc(N3CC(COC(=O)NC(C)C)C3)[nH]n2)n(C)n1 [Example 558],4.00 to 6.00
11,COCc1cc2c(Nc3cc([C@H]4C[C@@H](COc5cccnc5)C4)[nH]n3)nccn2n1 [Example 586],6.00 to 6.60
12,CC(C)NC(=O)OC[C@H]1C[C@@H](c2cc(Nc3ccc4c(n3)C(C)(C)NC4=O)n[nH]2)C1 [Example 589],≥ 7.00
13,COCc1cc2c(Nc3cc([C@H]4C[C@@H](OC(=O)NC5(C)CC5)CO4)[nH]n3)nccn2n1 [Example 619],≥ 7.00
14,COCc1cc2c(Nc3cc([C@@H]4C[C@H](OC(=O)NC5(C)CC5)CO4)[nH]n3)nccn2n1 [Example 620],≥ 7.00
15,COCc1cc2c(Nc3cc([C@H]4C[C@@H](COC(=O)N5[C@@H](C)CC[C@@H]5C)C4)[nH]n3)nccn2n1 [Example 621],≥ 7.00
16,CC(C)NC(=O)O[C@@H]1CO[C@H](c2cc(NC(=O)c3cc(CN4CCCC4)nn3C)n[nH]2)C1 [Example 634],6.60 to 7.00
17,CC(C)n1cnnc1OC[C@H]1C[C@@H](c2cc(Nc3nccn4nccc34)n[nH]2)C1 [Example 635],≥ 7.00
18,COCc1cc2c(Nc3cc([C@H]4C[C@@H](COc5nncn5C(C)(C)C)C4)[nH]n3)nccn2n1 [Example 636],≥ 7.00
19,CC(C)(C)n1cnnc1OC[C@H]1C[C@@H](c2cc(Nc3nccn4nccc34)n[nH]2)C1 [Example 637],≥ 7.00
20,COCc1cc2c(Nc3cc([C@H]4C[C@@H](OC(=O)N[C@H](C)CC(F)(F)F)CO4)[nH]n3)nccn2n1 [Example 638],≥ 7.00
21,COCc1cc2c(Nc3cc([C@H]4C[C@@H](OC(=O)N[C@@H](C)CC(F)(F)F)CO4)[nH]n3)nccn2n1 [Example 639],≥ 7.00

row,Compound,pIC50
1,COCc1cc2c(Nc3cc([C@H]4C[C@@H](OC(=O)NC5(C(F)(F)F)CC5)CO4)[nH]n3)nccn2n1 [Example 640],≥ 7.00
2,COCc1cc2c(Nc3cc([C@H]4C[C@@H](OC(=O)NC(C)(C)C(F)(F)F)CO4)[nH]n3)nccn2n1 [Example 641],≥ 7.00
3,COCc1cc2c(Nc3cc([C@H]4C[C@@H](OC(=O)NC5(CC(F)(F)F)CC5)CO4)[nH]n3)nccn2n1 [Example 643],≥ 7.00
4,COCc1cc2c(Nc3cc([C@H]4C[C@@H](OC(=O)NC5(C(F)F)CC5)CO4)[nH]n3)nccn2n1 [Example 644],≥ 7.00
5,COCc1cc2c(Nc3cc([C@H]4C[C@@H](OC(=O)NC(C)(C)C(F)F)CO4)[nH]n3)nccn2n1 [Example 647],≥ 7.00
6,CC(C)NC(=O)O[C@@H]1CO[C@H](c2cc(Nc3nccc4nccn34)n[nH]2)C1 [Example 648],≥ 7.00
7,CC(C)NC(=O)O[C@H]1CO[C@@H](c2cc(Nc3nccc4nccn34)n[nH]2)C1 [Example 649],≥ 7.00
8,COCc1cc2c(Nc3cc([C@H]4C[C@@H](OC(=O)NC56CC(C5)C6)CO4)[nH]n3)nccn2n1 [Example 651],≥ 7.00
9,CCOCc1cc2c(Nc3cc([C@H]4C[C@@H](OC(=O)NC(C)C)CO4)[nH]n3)nccn2n1 [Example 653],≥ 7.00
10,CC[C@@H](C)NC(=O)O[C@H]1CO[C@@H](c2cc(Nc3nccn4nc(COC)cc34)n[nH]2)C1 [Example 654],≥ 7.00
11,COCc1cc2c(Nc3cc([C@H]4C[C@@H](OC(=O)N[C@H](C)C5CC5)CO4)[nH]n3)nccn2n1 [Example 655],≥ 7.00
12,COCc1cc2c(Nc3cc([C@H]4C[C@@H](OC(=O)N[C@@H](C)C5CC5)CO4)[nH]n3)nccn2n1 [Example 656],≥ 7.00
13,CC(C)NC(=O)O[C@@H]1CC[C@H](c2cc(NC(=O)c3cc(CN4CCC(F)(F)C4)nn3C)n[nH]2)C1 [Example 657],≥ 7.00
14,CC(C)NC(=O)O[C@H]1CO[C@@H](c2cc(Nc3nccn4nc(COC(C)C)cc34)n[nH]2)C1 [Example 658],≥ 7.00
15,COCc1cc2c(Nc3cc([C@H]4C[C@@H](OC(N)=O)CO4)[nH]n3)nccn2n1 [Example 659],4.00 to 6.00
16,C#CC1CN(C(=O)O[C@@H]2CC[C@H](c3cc(NC(=O)Cc4cc(C)no4)n[nH]3)C2)C1 [Example 660],6.60 to 7.00
17,Cc1cc(CC(=O)Nc2cc([C@H]3CC[C@@H](OC(=O)N4CC5C(C4)C5(C)C)C3)[nH]n2)on1 (stereo partly drawn) [Example 661],≥ 7.00
18,Cc1cc(CC(=O)Nc2cc([C@H]3CC[C@@H](OC(=O)N4C[C@@H]5[C@@H](CF)[C@@H]5C4)C3)[nH]n2)on1 [Example 662],≥ 7.00
19,Cc1cc(CC(=O)Nc2cc([C@H]3CC[C@@H](OC(=O)N4CC5CC(C5)C4)C3)[nH]n2)on1 [Example 663],≥ 7.00
20,Cc1cc(CC(=O)Nc2cc([C@H]3CC[C@@H](OC(=O)N4CC5CC(F)(C5)C4)C3)[nH]n2)on1 [Example 664],6.60 to 7.00
21,COCc1cc2c(Nc3cc([C@H]4C[C@@H](OC(=O)N[C@@H](C)C(C)C)CO4)[nH]n3)nccn2n1 [Example 665],≥ 7.00
